Measured values from patent US9840478B2 (MERCK SHARP & DOHME CORP., priority 2013, dated 2017).
Read-outs that look alike come from different tables or passages of the source.

Test system: HIV-1 (H9IIIB strain)
Experiment: Cell-based HIV infection assay using a reporter (Cell-Based), MT4-GFP cells
Conditions: 50% normal human serum, mean of at least two independent experiments, read-out: Cell-based IP
How it was run: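 MT4-GFP cells (HIV LTR-driven GFP) infected 24 h with HIV-1 H9IIIB at low MOI, then washed and plated with compounds in RPMI + 50% normal human serum, 0.4% DMSO final. Green cells counted at 24 and 48 h; R0 = 48 h/24 h ratio, inhibition normalized to DMSO and triple-drug control; IC50 from 4-parameter fit.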

[1] = Human immunodeficiency virus 1, MT4-GFP cells infected with HIV-1 H9IIIB
[2] = MT4-GFP cells infected with HIV-1 H9IIIB

Compound | IC50 [1] [µM] | IC50 [2] [µM]
C[C@H]1CNC[C@H](CCc2c(F)cccc2NC(=O)[C@@H](N)C(c2cccc(F)c2)c2cccc(F)c2)N1S(C)(=O)=O [Example 170, 3-fluoro-N-(3-fluoro-2-{2-[(2S,6S)-6-methyl-1-(methylsulfonyl)piperazin-2-yl]ethyl}phenyl)-β-(3-fluorophenyl)-L-phenylalaninamide] | 0.06 | –
N[C@H](C(=O)NC1CC(F)(F)CC1CC[C@H]1CNCCN1S(=O)(=O)c1ccccc1)[C@H](c1ccc(Cl)cc1)C1CCOCC1 (stereo partly drawn) [Example 361, (betaS)-4-hcloro-N-(4,4-difluoro-2-{2-[(2S)-1-(phenylsulfonyl)piperazin-2-yl]ethyl}cyclopentyl)-beta-(tetrahydro-2H-pyran-4-yl)-L-phenylalaninamide] | – | 0.88
COC(=O)N[C@H](C(=O)Nc1cncc(F)c1CC[C@H]1CNC[C@@H](C)N1S(=O)(=O)C1CC1)[C@@H](c1ccc(F)cc1)c1cc(F)cc(F)c1 [Example 211, (βS)-N-(4-{2-[(2S,6R)-1-(cyclopropylsulfonyl)-6-methylpiperazin-2-yl]ethyl}-5-fluoropyridin-3-yl)-β-(3,5-difluorophenyl)-4-fluoro-Nα-(methoxycarbonyl)-L-phenylalaninamide] | 0.016 | –
CC(C)CC1CCCN1S(=O)(=O)N1CCNC[C@@H]1CCc1c(F)cncc1NC(=O)C[C@@H](c1ccc(F)cc1)c1cc(F)cc(F)c1 (stereo partly drawn) [Example 337, (3S)-3-(3,5-difluorophenyl)-N-(5-fluoro-4-{2-[(2S)-1-{[2-(2-methylpropyl)pyrrolidin-1-yl]sulfonyl}piperazin-2-yl]ethyl}pyridin-3-yl)-3-(4-fluorophenyl)propanamide] | 0.13 | –
CC(C)OCC1CNC[C@H](CCc2c(F)cccc2NC(=O)[C@@H](N)[C@@H](c2ccc(F)cc2)c2cc(F)cc(F)c2)N1S(=O)(=O)C1CC1 (stereo partly drawn) [Example 256, (βS)-N-[2-(2-{(2S)-1-(cyclopropylsulfonyl)-6-[(1-methylethoxy)methyl]piperazin-2-yl}ethyl)-3-fluorophenyl]-β-(3,5-difluorophenyl)-4-fluoro-L-phenylalaninamide] | – | 0.073
COC(=O)N[C@H](C(=O)Nc1cccc(F)c1CC[C@H]1CNC[C@@H](C)N1S(=O)(=O)c1ccccc1)C1(c2ccc(Cl)cc2)CCOCC1 [Example 275, methyl {(1S)-1-[4-(4-chlorophenyl)tetrahydro-2H-pyran-4-yl]-2-[(3-fluoro-2-{2-[(2S,6R)-6-methyl-1-(phenylsulfonyl)piperazin-2-yl]ethyl}phenyl)amino]-2-oxoethyl}carbamate] | 0.019 | –
COC(=O)N[C@H](C(=O)Nc1cccc(F)c1CC[C@H]1CNC[C@H](C)N1S(=O)(=O)c1ccccc1)[C@@H](c1ccc(Cl)cc1)C(C)C [Example 111, (βR)-4-chloro-N-(3-fluoro-2-{2-[(2S,6S)-6-methyl-1-(phenylsulfonyl)piperazin-2-yl]ethyl}phenyl)-Nα-(methoxycarbonyl)-β-(1-methylethyl)-L-phenylalaninamide] | 0.034 | –
O=C(Nc1cccc(F)c1CC[C@H]1CNCCN1S(=O)(=O)c1ccccc1)[C@@H](O)C(c1ccccc1)c1ccccc1 (single isomer, unassigned) [Example 364] | 0.034 | –
C[C@H]1CNC[C@H](CCc2c(F)cncc2NC(=O)[C@@H](N)[C@@H](c2ccc(F)cc2)c2cc(F)cc(F)c2)N1S(=O)(=O)c1ccc(OC(F)(F)F)cc1 [Example 243, (βS)-β-(3,5-difluorophenyl)-4-fluoro-N-(5-fluoro-4-{2-[(2S,6S)-6-methyl-1-{[4-(trifluoromethoxy)phenyl]sulfonyl}piperazin-2-yl]ethyl}pyridin-3-yl)-L-phenylalaninamide] | 0.017 | –
C[C@H]1CNC[C@H](CCc2c(F)cncc2NC(=O)[C@@H](N)[C@@H](c2ccc(F)cc2)c2cc(F)cc(F)c2)N1S(=O)(=O)c1ccccc1Cl [Example 245, (βS)-N-[4-(2-{(2S,6S)-1-[(2-chlorophenyl)sulfonyl]-6-methylpiperazin-2-yl}ethyl)-5-fluoropyridin-3-yl]-β-(3,5-difluorophenyl)-4-fluoro-L-phenylalaninamide] | 0.051 | –
COC(=O)N[C@H](C(=O)Nc1cccc(F)c1CC[C@H]1CNC[C@H](C)N1S(=O)(=O)c1ccccc1OC)[C@@H](c1ccc(F)cc1)c1cc(F)cc(F)c1 [Example 240, (βS)-β-(3,5-difluorophenyl)-4-fluoro-N-[3-fluoro-2-(2-{(2S,6S)-1-[(2-methoxyphenyl)sulfonyl]-6-methylpiperazin-2-yl}ethyl)phenyl]-Nα-(methoxycarbonyl)-L-phenylalaninamide] | 0.071 | –
C[C@H]1CNC[C@H](CCc2c(F)cccc2NC(=O)[C@@H](N)[C@@H](c2ccc(F)cc2)c2cc(F)cc(F)c2)N1S(=O)(=O)c1ccccc1 [Example 97, (βS)-β-(3,5-difluorophenyl)-4-fluoro-N-(3-fluoro-2-{2-[(2S,6S)-6-methyl-1-(phenylsulfonyl)piperazin-2-yl]ethyl}phenyl)-L-phenylalaninamide] | 0.025 | –
COC(=O)N[C@H](C(=O)Nc1cccc(F)c1CC[C@H]1CNC[C@H](C)N1S(=O)(=O)c1ccc(OC(F)(F)F)cc1)[C@@H](c1ccc(Cl)cc1)c1ccc(OC)nc1 [Example 189, (βS)-4-chloro-N-(3-fluoro-2-{2-[(2S,6S)-6-methyl-1-{[4-(trifluoromethoxy)phenyl]sulfonyl}piperazin-2-yl]ethyl}phenyl)-Nα-(methoxycarbonyl)-β-(6-methoxypyridin-3-yl)-L-phenylalaninamide] | 0.029 | –
CC(=O)N[C@H](C(=O)Nc1cncc(F)c1CC[C@H]1CNCCN1S(=O)(=O)C1CC1)[C@@H](c1ccc(F)cc1)c1cc(F)cc(F)c1 [Example 80, (βS)-Nα-acetyl-N-(4-{2-[(2S)-1-(cyclopropylsulfonyl)piperazin-2-yl]ethyl}-5-fluoropyridin-3-yl)-3,5-difluoro-β-(4-fluorophenyl)-L-phenylalaninamide] | 0.066 | –
COC(=O)N[C@H](C(=O)Nc1cncc(F)c1CC[C@H]1CNC[C@H](C)N1S(=O)(=O)c1ccc(Cl)cc1)[C@@H](c1ccc(Cl)cc1)C1CCOCC1 [Example 282, (βR)-4-chloro-N-[4-(2-{(2S,6S)-1-[(4-chlorophenyl)sulfonyl]-6-methylpiperazin-2-yl}ethyl)-5-fluoropyridin-3-yl]-Nα-(methoxycarbonyl)-β-(tetrahydro-2H-pyran-4-yl)-L-phenylalaninamide] | 0.011 | –
COC(=O)N[C@H](C(=O)Nc1cccc(F)c1CC[C@H]1CNC[C@H](C)N1S(=O)(=O)C1CC1)C(c1cccc(F)c1)c1cccc(F)c1 [Example 159, N-(2-{2-[(2S,6S)-1-(cyclopropylsulfonyl)-6-methylpiperazin-2-yl]ethyl}-3-fluorophenyl)-3-fluoro-β-(3-fluorophenyl)-Nα-(methoxycarbonyl)-L-phenylalaninamide] | 0.042 | –
COC(=O)N[C@H](C(=O)Nc1cccc(F)c1CC[C@H]1CNC[C@H](C)N1S(=O)(=O)C1CC1)[C@@H](c1ccc(Cl)cc1)C1CCOCC1 [Example 12, Methyl (1R,2S)-1-(4-chlorophenyl)-3-(2-(2-((2S,6S)-1-(cyclopropylsulfonyl)-6-methylpiperazin-2-yl)ethyl)-3-fluorophenylamino)-3-oxo-1-(tetrahydro-2H-pyran-4-yl)propan-2-ylcarbamate] | 0.018 | –
